Measured values taken from patent US7517874B2 (priority 2007, dated 2009).
Read-outs that look alike come from different tables or passages of the source.

How the values were obtained:
[1] = biological target: human CB1 receptor (hCB1) (Homo sapiens, UniProt P21554); assay: cell-based; assay type: cell-based
How it was run: (§1)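 Agonism or inverse agonism was assessed as change in intracellular cAMP in CHO-K1 cells expressing human CB1 or rat CB2 (genomic DNA, pcDNA3.1).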

rat CB2 receptor (rCB2) = biological target: T1, rat CB2 receptor (rCB2) (Rattus norvegicus, UniProt Q9QZN9); assay: cell-based; assay type: cell-based; settings: for +/− RCB2: agonist or inverse agonist at rCB2
T1 sequence (Q9QZN9 1-360): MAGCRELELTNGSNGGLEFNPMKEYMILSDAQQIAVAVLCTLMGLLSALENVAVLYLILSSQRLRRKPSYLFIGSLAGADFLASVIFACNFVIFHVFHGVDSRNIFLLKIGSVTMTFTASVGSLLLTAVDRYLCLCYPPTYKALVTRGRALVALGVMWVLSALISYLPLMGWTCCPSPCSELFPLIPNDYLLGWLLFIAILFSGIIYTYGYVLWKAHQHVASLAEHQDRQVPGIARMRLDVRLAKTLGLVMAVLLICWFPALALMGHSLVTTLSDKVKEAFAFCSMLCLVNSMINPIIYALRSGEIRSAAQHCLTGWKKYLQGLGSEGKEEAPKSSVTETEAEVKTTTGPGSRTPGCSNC
How it was run: as §1

[2] = groups >100 nM-10 μM and >10 μM, cAMP, CHO-K1 hCB1, read-out: EC50 HCB1

human CB1 receptor (hCB1), sequence (P21554 whole entry): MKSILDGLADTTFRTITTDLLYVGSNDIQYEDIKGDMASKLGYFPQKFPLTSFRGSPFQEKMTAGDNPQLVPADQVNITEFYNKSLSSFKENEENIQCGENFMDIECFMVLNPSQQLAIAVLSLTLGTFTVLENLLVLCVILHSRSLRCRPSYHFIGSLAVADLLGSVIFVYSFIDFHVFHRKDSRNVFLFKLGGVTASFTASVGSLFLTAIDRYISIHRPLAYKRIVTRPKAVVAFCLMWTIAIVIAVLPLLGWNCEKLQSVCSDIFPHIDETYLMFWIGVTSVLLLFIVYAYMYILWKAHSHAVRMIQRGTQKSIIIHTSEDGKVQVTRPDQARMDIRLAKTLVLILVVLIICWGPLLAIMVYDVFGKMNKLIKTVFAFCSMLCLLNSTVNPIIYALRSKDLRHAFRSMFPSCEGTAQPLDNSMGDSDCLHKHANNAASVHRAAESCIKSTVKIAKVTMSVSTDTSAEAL

| SMILES | EC50 [1] | +/− RCB2 (rat CB2 receptor (rCB2)) | EC50 [1, 2] | EC50 (rat CB2 receptor (rCB2); groups >100 nM-10 μM and >10 μM, cAMP, CHO-K1 rCB2, read-out: EC50 RCB2) | EC50 (rat CB2 receptor (rCB2)) |
| --- | --- | --- | --- | --- | --- |
| CC(C)CN1CCn2c(-c3ccc(Cl)cc3)nc(C(=O)N[C@H](CO)C(C)(C)C)c2C1 [Compound 160, (S)-3-(4-chlorophenyl)-N-(1-hydroxy-3,3-dimethylbutan-2-yl)-7-isobutyl-5,6,7,8-tetrahydroimidazo[1,5-a]pyrazine-1-carboxamide] | > 10000 nM | − |  |  |  |
| CCN1CCn2c(-c3ccc(Cl)cc3)nc(C(=O)N[C@H](CO)C(C)(C)C)c2C1 [Compound 161, (S)-3-(4-chlorophenyl)-7-ethyl-N-(1-hydroxy-3,3-dimethylbutan-2-yl)-5,6,7,8-tetrahydroimidazo[1,5-a]pyrazine-1-carboxamide] | > 10000 nM | − |  |  |  |
| CC(C)(C)[C@@H](CO)NC(=O)c1nc(-c2ccc(Cl)cc2)n2c1CN(CCO)CC2 [Compound 162, (S)-3-(4-chlorophenyl)-N-(1-hydroxy-3,3-dimethylbutan-2-yl)-7-(2-hydroxyethyl)-5,6,7,8-tetrahydroimidazo[1,5-a]pyrazine-1-carboxamide] | > 10000 nM | − |  |  |  |
| CC(C)CN1CCn2c(-c3ccccc3)nc(C(=O)N[C@H](C)C3CCCCC3)c2C1 [Compound 163, (R)-N-(1-cyclohexylethyl)-7-isobutyl-3-phenyl-5,6,7,8-tetrahydroimidazo[1,5-a]pyrazine-1-carboxamide] | > 10000 nM | − |  |  |  |
| CCN1CCn2c(-c3ccccc3)nc(C(=O)N[C@H](C)C3CCCCC3)c2C1 [Compound 164, (R)-N-(1-cyclohexylethyl)-7-ethyl-3-phenyl-5,6,7,8-tetrahydroimidazo[1,5-a]pyrazine-1-carboxamide] | > 10000 nM | − |  |  |  |
| CC(C)CN1CCn2c(-c3ccccc3)nc(C(=O)NC3CCCCC3)c2C1 [Compound 165, N-cyclohexyl-7-isobutyl-3-phenyl-5,6,7,8-tetrahydroimidazo[1,5-a]pyrazine-1-carboxamide] | > 10000 nM | − |  |  |  |
| O=C(NC1CCCCC1)c1nc(-c2ccccc2)n2c1CN(CCO)CC2 [Compound 166, N-cyclohexyl-7-(2-hydroxyethyl)-3-phenyl-5,6,7,8-tetrahydroimidazo[1,5-a]pyrazine-1-carboxamide] |  | − | > 10000 nM |  |  |
| CC(C)CN1CCn2c(-c3ccccc3)nc(C(=O)NCC3CCOCC3)c2C1 [Compound 167, 7-isobutyl-3-phenyl-N-((tetrahydro-2H-pyran-4-yl)methyl)-5,6,7,8-tetrahydroimidazo[1,5-a]pyrazine-1-carboxamide] | > 10000 nM | − |  |  |  |
| CCN1CCn2c(-c3ccccc3)nc(C(=O)NCC3CCOCC3)c2C1 [Compound 168, 7-ethyl-3-phenyl-N-((tetrahydro-2H-pyran-4-yl)methyl)-5,6,7,8-tetrahydroimidazo[1,5-a]pyrazine-1-carboxamide] | > 10000 nM | − |  |  |  |
| O=C(NCC1CCOCC1)c1nc(-c2ccccc2)n2c1CN(CCO)CC2 [Compound 169, 7-(2-hydroxyethyl)-3-phenyl-N-((tetrahydro-2H-pyran-4-yl)methyl)-5,6,7,8-tetrahydroimidazo[1,5-a]pyrazine-1-carboxamide] |  | − | > 10000 nM |  |  |
| CC(=O)N1CCn2c(-c3ccccc3)nc(C(=O)N[C@H](C)C3CCCCC3)c2C1 [Compound 170, (R)-7-acetyl-N-(1-cyclohexylethyl)-3-phenyl-5,6,7,8-tetrahydro-imidazo[1,5-a]pyrazine-1-carboxamide] | > 10000 nM | − |  |  |  |
| CC(C)NC(=O)N1CCn2c(-c3ccccc3)nc(C(=O)NC3C4(C)CCC(C4)C3(C)C)c2C1 (stereo not shown) [Compound 171, N7-isopropyl-3-phenyl-N1-(1,3,3-trimethylbicyclo[2.2.1]heptan-2-yl)-5,6-dihydroimidazo[1,5-a]pyrazine-1,7(8H)-dicarboxamide] | > 10000 nM | − |  |  |  |
| CC(=O)N1CCn2c(-c3ccccc3)nc(C(=O)N[C@@H](C)c3ccccc3)c2C1 [Compound 172, (S)-7-acetyl-3-phenyl-N-(1-phenylethyl)-5,6,7,8-tetrahydroimidazo[1,5-a]pyrazine-1-carboxamide] | > 10000 nM | + |  |  |  |
| CC(=O)N1CCn2c(-c3ccccc3)nc(C(=O)Nc3ccccc3)c2C1 [Compound 173, 7-acetyl-N,3-diphenyl-5,6,7,8-tetrahydroimidazo[1,5-a]pyrazine-1-carboxamide] |  |  | > 10000 nM | > 10000 nM |  |
| CNC(=O)[C@@H](NC(=O)c1nc(-c2ccccc2)n2c1CN(C(C)=O)CC2)C(C)(C)C [Compound 174, (S)-7-acetyl-N-(3,3-dimethyl-1-(methylamino)-1-oxobutan-2-yl)-3-phenyl-5,6,7,8-tetrahydroimidazo[1,5-a]pyrazine-1-carboxamide] | > 10000 nM | + |  |  |  |
| CC(=O)N1CCn2c(-c3ccccc3)nc(C(=O)NN3CCCCC3)c2C1 [Compound 175, 7-acetyl-3-phenyl-N-(piperidin-1-yl)-5,6,7,8-tetrahydroimidazo[1,5-a]pyrazine-1-carboxamide] | > 10000 nM |  |  |  | > 10000 nM |
| CC(=O)N1CCn2c(-c3ccccc3)nc(C(=O)NCC3CCOCC3)c2C1 [Compound 176, 7-acetyl-3-phenyl-N-((tetrahydro-2H-pyran-4-yl)methyl)-5,6,7,8-tetrahydroimidazo[1,5-a]pyrazine-1-carboxamide] | > 10000 nM |  |  |  | > 10000 nM |
| CC(=O)N1CCn2c(-c3ccccc3)nc(C(=O)NC3CCCCC3)c2C1 [Compound 177, 7-acetyl-N-cyclohexyl-3-phenyl-5,6,7,8-tetrahydroimidazo[1,5-a]pyrazine-1-carboxamide] | > 10000 nM | − |  |  |  |
| COC(=O)N1CCn2c(-c3ccccc3)nc(C(=O)NC3C4(C)CCC(C4)C3(C)C)c2C1 (stereo not shown) [Compound 178, methyl 3-phenyl-1-(1,3,3-trimethylbicyclo[2.2.1]heptan-2-ylcarbamoyl)-5,6-dihydroimidazo[1,5-a]pyrazine-7(8H)-carboxylate] | > 10000 nM | − |  |  |  |
| COC(=O)N1CCn2c(-c3ccccc3)nc(C(=O)N[C@@H](C)c3ccccc3)c2C1 [Compound 179, (S)-methyl 3-phenyl-1-(1-phenylethylcarbamoyl)-5,6-dihydroimidazo[1,5-a]pyrazine-7(8H)-carboxylate] | > 10000 nM | − |  |  |  |
| CNC(=O)[C@@H](NC(=O)c1nc(-c2ccccc2)n2c1CN(C(=O)OC)CC2)C(C)(C)C [Compound 180, (S)-methyl 1-(3,3-dimethyl-1-(methylamino)-1-oxobutan-2-ylcarbamoyl)-3-phenyl-5,6-dihydroimidazo[1,5-a]pyrazine-7(8H)-carboxylate] | > 10000 nM | − |  |  |  |
| COC(=O)N1CCn2c(-c3ccccc3)nc(C(=O)Nc3ccccc3)c2C1 [Compound 181, methyl 3-phenyl-1-(phenylcarbamoyl)-5,6-dihydroimidazo[1,5-a]pyrazine-7(8H)-carboxylate] |  | − | > 10000 nM |  |  |
| COC(=O)N1CCn2c(-c3ccccc3)nc(C(=O)NN3CCCCC3)c2C1 [Compound 182, methyl 3-phenyl-1-(piperidin-1-ylcarbamoyl)-5,6-dihydroimidazo[1,5-a]pyrazine-7(8H)-carboxylate] |  | − | > 10000 nM |  |  |
| COC(=O)N1CCn2c(-c3ccc(Cl)cc3)nc(C(=O)NCCC(C)C)c2C1 [Compound 183, methyl 3-(4-chlorophenyl)-1-(isopentylcarbamoyl)-5,6-dihydroimidazo[1,5-a]pyrazine-7(8H)-carboxylate] | > 10000 nM | − |  |  |  |
| COC(=O)N1CCn2c(-c3ccc(Cl)cc3)nc(C(=O)N[C@H](CO)C(C)(C)C)c2C1 [Compound 184, (S)-methyl 3-(4-chlorophenyl)-1-(1-hydroxy-3,3-dimethylbutan-2-ylcarbamoyl)-5,6-dihydroimidazo[1,5-a]pyrazine-7(8H)-carboxylate] | > 10000 nM | − |  |  |  |
| COC(=O)N1CCn2c(-c3ccccc3)nc(C(=O)N[C@H](C)C3CCCCC3)c2C1 [Compound 185, (R)-methyl 1-(1-cyclohexylethylcarbamoyl)-3-phenyl-5,6-dihydroimidazo[1,5-a]pyrazine-7(8H)-carboxylate] | > 10000 nM | − |  |  |  |
| COC(=O)N1CCn2c(-c3ccccc3)nc(C(=O)NCC3CCOCC3)c2C1 [Compound 186, methyl 3-phenyl-1-((tetrahydro-2H-pyran-4-yl)methylcarbamoyl)-5,6-dihydroimidazo[1,5-a]pyrazine-7(8H)-carboxylate] | > 10000 nM | − |  |  |  |
| COC(=O)N1CCn2c(-c3ccccc3)nc(C(=O)NC3CCCCC3)c2C1 [Compound 187, methyl 1-(cyclohexylcarbamoyl)-3-phenyl-5,6-dihydroimidazo[1,5-a]pyrazine-7(8H)-carboxylate] |  | − | > 10000 nM |  |  |
| CNC(=O)[C@@H](NC(=O)c1nc(-c2ccccc2)n2c1CN(C(=O)CC(C)(C)C)CC2)C(C)(C)C [Compound 188, (S)-N-(3,3-dimethyl-1-(methylamino)-1-oxobutan-2-yl)-7-(3,3-dimethylbutanoyl)-3-phenyl-5,6,7,8-tetrahydroimidazo[1,5-a]pyrazine-1-carboxamide] | > 10000 nM | − |  |  |  |
